{"source": "patent US20030086902A1", "about": "“Cytokine-like peptide” (priority 1999, published 2003)", "type_in_all_cases": "cell-based", "key": {"[1]": {"system": "sindbis viruses", "assay": "antiviral bioassay using FL cells and sindbis viruses", "description": "The antiviral activity of the resultant synthetic peptides was inspected by a bioassay method using human amnion-derived FL cells and sindbis viruses (Armstrong, J. A., Methods in Enzymology, 78, 381-387 (1981)). FL cells were inoculated on wells of a 96-well microtiter plate (IWAKI GLASS CO., LTD.) at 3.5×10^5 cells/well and cultured for 24 hours. Thereafter, each peptide was added at the concentration shown in FIG. 3 (0.9 μM to 120 μM) and cultured for 24 hours. […] Thereafter, sindbis viruses were added to each well and cultured for 15 hours. The culture solution was discarded, the plate was immersed in a crystal violet solution containing formalin for about 15 minutes, and living cells were immobilized and stained.\nIn order to identify an amino acid residue that plays an important role in expressing the antiviral activity of peptide SYR6, 12 types of varied peptides were prepared through chemical synthesis in which each of all the amino acid residues other than alanine of SYR6 were respectively substituted with alanine (peptides were successively designated as N1 to N15 in order from the N-terminus side in accordance with the number of the amino acid residue converted into alanine. Since the fourth, eighth, and ninth residues are alanine, excluding these, a total of 12 types of peptides was prepared). The sequences are shown in the lower part of FIG. 7. […]"}, "[2]": {"system": "vesicular stomatitis viruses (VSV)", "conditions": "human amnion-derived FL cells"}, "[3]": {"system": "sindbis viruses", "assay": "antiviral activity in the presence of interferon neutralizing antibodies (FL cells, sindbis viruses)", "conditions": "MIF-1 (anti-IFN α), YSB-1 (anti-IFN β), anti-IFN γ antibodies added", "description": "In order to deny the possibility that the antiviral activity of peptide SYR6 is attained by inducing endogenous production of interferon, the antiviral activity in the presence of various interferon neutralizing antibodies was examined. FL cells were inoculated on wells of a 96-well microtiter plate (IWAKI GLASS CO., LTD.) at 3.5×10^5 cells/well and cultured for 24 hours. Thereafter, peptide SYR6 was added at the concentration shown in FIG. 5 (0.9 μM to 120 μM) and cultured for 24 hours. […] Thereafter, sindbis viruses were added to each well and cultured for 15 hours. In this case also, various neutralizing antibodies were added and cultured under the same conditions as described above. The culture solution was discarded, the plate was immersed in a crystal violet solution containing formalin for about 15 minutes, and living cells were immobilized and stained. […] Therefore, the possibility that the antiviral activity of peptide SYR6 was attained by inducing the production of endogenous interferon was denied."}}, "data": [{"substance": "SYR6: synthetic 15-residue peptide with the sequence of phage 6, SEQ ID NO: 1 (SVQARWEAAFDLDLY; Designed peptide based on the DNA sequence of phage binding to monoclonal antibody YSB-2)", "values": [{"measurement": "antiviral activity of the synthetic peptides (FIG. 3)", "setting": "[1]; FL cells, SYR6 HPLC peaks measured separately", "value": "activity was recognized"}, {"measurement": "concentration at which the peptide began to exhibit antiviral activity", "setting": "[1]; human amnion-derived FL cells, peptide 0.9 μM to 120 μM for 24 hours", "value": 30, "unit": "µM"}, {"measurement": "concentration at which the peptide began to exhibit antiviral activity", "setting": "[2]", "value": 30, "unit": "µM"}, {"measurement": "antiviral activity in the presence of interferon neutralizing antibodies", "setting": "[3]", "value": "not affected at all"}]}]}
